Consider eleven compounds from US10104890B2, “Compositions and methods for controlling pesticide resistant pests” (Rothamsted Research Limited, priority 2011, dated 2018).

This series has as its system Myzus persicae clone 5191A. Type of series: in vivo. Conditions: for LC50 (lethal concentration to kill 50% of the population): LC50 of imidacloprid, alone or after 5 h pre-treatment with 0.25 μL of 1 g L−1 synergist, apterous aphids, topical, scored 72 h after treatment, probit analysis; for SF = synergism factor (LC50 unsynergised/LC50 synergised): with imidacloprid, 1 g L−1 synergist, 5 h pre-treatment, clone 5191A. As to the method: Aphids for bioassays were reared on Chinese cabbage leaves (Brassica rapa L. var. Pekinensis c.v Wong Bok) (Brassicaceae) in small plastic box-cages (Blackman boxes) (Stewart Plastics Ltd, Surrey, UK) maintained at 18±2° C. with a 16 h light: 8 h dark photoperiod. Each box contained two adult aphids placed on a leaf and left for 5 days to produce nymphs. After the 5th day the adults were removed and their esterase levels determined to ensure that no contamination or loss of esterase expression (reversion) among the different clones had occurred during the rearing process. After approximately 13-15 days adults were used for bioassays.
Clone 5191A was collected from tobacco in Greece in 2007, and established from a single parthenogenetic female.
Apterous aphids were transferred from Blackman boxes (section 2.1.1) to the abaxial surface of Chinese cabbage leaf discs (approximately 10 adults per leaf disc) held on 1% agar in plastic containers (4 cm in diameter, A.W. Gregory & Co Limited, Kent, UK). The upper edge of each container was coated with Fluon® (Whitford Plastics, Cheshire, UK) to prevent aphid escape from the leaf surface. Netted lids were added to ensure apterous aphids could not escape. After allowing 30 min for the aphids to settle, each was dosed with 0.25 μL of 1 g L^−1 synergist dissolved in acetone or acetone only using a Burkard microapplicator (Burkhard Scientific, Middx, UK). Synergist concentrations chosen conferred no significant mortality compared to the acetone control treatment in preliminary bioassays. Five hours later, aphids were further treated with 0.25 μL imidacloprid in acetone at a range of concentrations, at least 3 replicates per concentration per bioassay. Controls were treated with 0.25 μL of acetone or 1 g L^−1 synergist in acetone and after 5 h with a further 0.25 μL of acetone.
Treated aphids were kept at 18±2° C. and 16 h light: 8 h dark photoperiod and scored 72 h after treatment. Aphids incapable of co-ordinated movement (after gentle touching with a paint brush if necessary) were scored as dead. All bioassays were performed a minimum of three times.
Pooled raw data from at least three separate bioassays were analysed by probit analysis using the statistical programme PC Polo Plus (LeOra, Software, Berkeley, USA). Polo Plus programme calculated the concentrations required to kill 50% of the population (LC50), 95% confidence limits (CL95%), slopes with standard errors (SE), chi-square (χ2) and degrees of freedom (df). Natural response was also estimated when control mortality occurred.

As for `CCCCOCCOCCOCc1cc2c(cc1CCC)CCC2` [EN 14-5], the “LC50 (lethal concentration to kill 50% of the population)” value is 41.5 ppm and the “SF = synergism factor (LC50 unsynergised/LC50 synergised)” value (from here on “SF = synergism factor”) stood at 2.17.
`CCCCOCCOCCOCc1cc2c(cc1CCC)CCO2` [EN 16-5]: the “LC50 (lethal concentration to kill 50% of the population)” value is reported as 12.2 ppm and the “SF = synergism factor” value is given as 7.41.
Taken in the same sequence, the figures for `CC#CCOc1cc2c(cc1CCC)CCO2` [EN 16-17] were 7.11 ppm and 12.7.
The matching figures for `CC#COCc1ccc2c(c1)CCO2` [EN 16-18]: 18.4 ppm and 4.91.
The matching figures for `CC#CCO[C@H](C)c1ccc(OC)c(OC)c1` [EN 25-10]: 4.88 ppm and 18.5.
For the compound `CC#CCOCc1cc2c(cc1CCC)OCO2` [EN 126], the “LC50 (lethal concentration to kill 50% of the population)” value came out at 0.31 ppm and the “SF = synergism factor” value is on record as 292.
Taken in the same sequence, the figures for `CCCCCCCCCCCCc1ccc2c(c1)OCO2` [EN 129] were 28.4 ppm and 3.18.
With `CC#CCOc1ccc2c(c1)OCO2` [EN 163], the “LC50 (lethal concentration to kill 50% of the population)” value amounted to 2.98 ppm and the “SF = synergism factor” value is on record as 30.3.
As to `CC#CCOc1cc2c(cc1CCC)OCO2` [EN 164], the “LC50 (lethal concentration to kill 50% of the population)” value amounted to 1.25 ppm and the “SF = synergism factor” value turned out to be 72.4.
Turning to `CCCCOCCOCCOCc1cc2c(cc1CCC)OCO2` [PBO, piperonyl butoxide], the “LC50 (lethal concentration to kill 50% of the population)” value is 6.22 ppm and the “SF = synergism factor” value is recorded as 14.5.
As to `O=[N+]([O-])NC1=NCCN1Cc1ccc(Cl)nc1` [imidacloprid], the “LC50 (lethal concentration to kill 50% of the population)” value was 90.4 ppm.
